Measurements from US20080108573A1, “Compositions And Methods For Treatment Of Cardiovascular Disease” (priority 2004, published 2008).
Entries after “also recorded” stand apart in the source; their conditions may differ.

Key:
[1] = system: SHR and WKY rats on low/high salt diet, L-NAME plus high salt diet, or streptozotocin induced diabetes; assay: Preliminary four-week VIP infusion in rat models of myocardial fibrosis (Example 1); format: in vivo; conditions: VIP 7.2 nmol/kg/day via Alzet mini pump, four weeks, vs vehicle
Excerpt: Further preliminary experiments have been conducted on a number of animal models, which encompass a range of fibrous tissue replacement, varying from mild to moderate to severe. The experiments on the animal models encompassed a variety of aetiologies (alone and in combination) and a range of levels of induced fibrosis. For these experiments two types of rats were used, spontaneously hypertensive rats (SHR) and normotensive control Wistar-Kyoto rats (WKY). The WKY rats were given: 1) low salt diet, 2) high salt diet, or 3) L-NAME (ω-monomethyl-nitro-L-arginine; 10 mg/kg/day) plus high salt diet. The SHR rats were given low or high salt diets. The effect of VIP infusion in diabetic heart disease was also studied in the WKY rate with streptozotocin induced diabetes.
In each treatment group, rats were randomised to VIP or vehicle infusion (n=24 in each group) for four weeks. VIP was administered via Alzet mini pump at a rate of 7.2 nmol/kg/day.
After four weeks, the rats were anaesthetised and the hearts were harvested. Myocardial VIP concentrations and myocardial fibrosis were quantitated.

[2] = system: WKY rats on high salt diet or high salt diet plus L-NAME; assay: Myocardial VIP content after four week VIP infusion (Example 4); format: in vivo, rat; conditions: four week intravenous infusion of VIP vs vehicle; WKY high salt diet, or high salt diet and L-NAME (FIGS. 7A and 7B)
Protocol: FIG. 7: A—Myocardial VIP concentrations in WKY rats on a high salt diet after a four week intravenous infusion of VIP or vehicle control. B—Myocardial VIP concentrations in WKY rats on a high salt diet and L-NAME (10 mg/kg) in the drinking water after a four week intravenous infusion of VIP or vehicle control.
(§1) VIP was measured by radioimmunoassay in known manner (see Davis R. E., Shelley S., Macdonald G. J. & Duggan K. A. (1992) The effects of a high sodium diet on the metabolism and secretion of vasoactive intestinal peptide in the rabbit. J. Physiol. 451:17-23. Duggan K. A., Ye V. Z. C., Jones D. M. Davis R. E. & Macdonald G. J. (1995) Effects of Endopeptidase 24.11 blockade on plasma and tissue concentrations of vasoactive intestinal peptide Clin. Sci. 89:267-271). The degree of myocardial fibrosis was quantitated by two methods in known manner (refer Ye V Z C, Hodge G, Yong J L C & Duggan K A (2002) Early myocardial fibrosis is associated with depletion of vasoactive intestinal peptide in the heart Exp. Physiol 87:539-546 Ye V Z C, Hodge G, Yong J L C & Duggan K A (2003) Myocardial VIP and myocardial fibrosis induced by nitric oxide synthase inhibition in the rat Acta Physiol. Scand. 179:353-360. Ye V Z C, Hodge G, Yong J L C & Duggan K A (2004) Vasopeptidase inhibition reverses myocardial VIP depletion and decreases myocardial fibrosis in salt sensitive hypertension Europ. […]

[3] = system: isolated trabeculae of human hearts; conditions: human hearts of previously healthy individuals; cited from earlier work
[4] = system: WKY rats on low, intermediate, high salt diet or high salt diet plus L-NAME; assay: Acute VIP infusion: uptake of VIP by the myocardium (Examples 1 and 2); format: in vivo; conditions: VIP 10 pmol/kg/min for one hour, rat models with increasing degree of fibrosis
Protocol: In preliminary studies a series of acute infusion experiments have been conducted in animal models.
Fourteen week old WKY rats were randomised to low salt diet (0.008%), intermediate salt diet (2.2%), high salt diet (4.4%) or high salt diet plus L-NAME (10 mg/kg/day) in the drinking water for 4 weeks (n=16 rats per group). On the day of the experiment the rats were anaesthetised and venous and arterial cannulae inserted. After a one hour rest equilibration period the rats were randomised to vehicle control (Haemaccell, Aventis) or VIP (10 pmol/kg/min) infusion for one hour at an infusion rate of 0.017 ml/min. The hearts were then harvested, myocardial VIP concentrations were measured and myocardial fibrosis quantitated.
The difference between the mean myocardial VIP concentrations after VIP or control infusion is a measure of VIP uptake by the heart.
(§2) VIP was measured by radioimmunoassay in known manner (see Davis R. E., Shelley S., Macdonald G. J. & Duggan K. A. (1992) The effects of a high sodium diet on the metabolism and secretion of vasoactive intestinal peptide in the rabbit. J. Physiol. 451:17-23. Duggan K. A., Ye V. Z. C., Jones D. M. Davis R. E. & Macdonald G. J. (1995) Effects of Endopeptidase 24.11 blockade on plasma and tissue concentrations of vasoactive intestinal peptide Clin. Sci. 89:267-271). […]

[5] = system: WKY rats on high salt diet, high salt diet plus L-NAME, or with streptozotocin induced diabetes; assay: Regression of existing myocardial fibrosis after VIP infusion (Example 4); format: in vivo, rat; conditions: VIP 5 pmol/kg/min, 4 weeks, three models: high salt, streptozotocin diabetes (FIGS. 4 to 6)
Protocol: as §1, with “Europ. J. Pharmacol. 485:235-242).” for “Europ.”

[6] = system: WKY rat fed a high salt diet; WKY rat fed a high salt diet and given L-NAME; assay: Effect of VIP infusion on fibrosis in animal models of fibrosis (Example 3); format: in vivo; conditions: VIP 5 pmol/kg/min, 4 weeks via Alzet minipump; WKY high salt diet and high salt diet plus L-NAME (FIGS. 2 and 3)
Protocol: Three animal models of myocardial fibrosis were used (animals obtained from Australian Animal Resources, Perth, Western Australia, Australia) • i) WKY rat fed a high salt diet • ii) WKY rat fed a high salt diet and given L-NAME (ω-monomethyl-nitro-L-arginine, Sigma Chemical Co.) 10 mg/kg/day in the drinking water • iii) WKY rats with diabetes induced by streptozotocin injection 60 mg/kg
In each model the rats were randomised to VIP (H-[…]NH2, obtained from Auspep, Australia) or vehicle control (Haemaccel, Aventis) infusion for 4 weeks via Alzet minipump (n=6-8 each experimental group). The dose of VIP was 5 pmol/kg/min.
In models i) and ii) 14 week old WKY rats were commenced on high salt diet or high salt diet plus L-NAME. […] Myocardial VIP and myocardial fibrosis were quantitated. […]
Myocardial VIP concentrations and myocardial fibrosis were quantitiated.
as §2

isolated rat heart = isolated rat heart perfused with VIP, ischaemia then reperfusion; cited from earlier work

In the case of CC[C@H](C)[C@H](NC(=O)[C@H](CO)NC(=O)[C@H](CC(N)=O)NC(=O)[C@H](CC(C)C)NC(=O)[C@H](Cc1ccc(O)cc1)NC(=O)[C@H](CCCCN)NC(=O)[C@H](CCCCN)NC(=O)[C@@H](NC(=O)[C@H](C)NC(=O)[C@H](CCSC)NC(=O)[C@H](CCC(N)=O)NC(=O)[C@H](CCCCN)NC(=O)[C@H](CCCNC(=N)N)NC(=O)[C@H](CC(C)C)NC(=O)[C@H](CCCNC(=N)N)NC(=O)[C@@H](NC(=O)[C@H](Cc1ccc(O)cc1)NC(=O)[C@H](CC(N)=O)NC(=O)[C@H](CC(=O)O)NC(=O)[C@@H](NC(=O)[C@H](Cc1ccccc1)NC(=O)[C@@H](NC(=O)[C@H](C)NC(=O)[C@H](CC(=O)O)NC(=O)[C@H](CO)NC(=O)[C@@H](N)Cc1c[nH]cn1)C(C)C)[C@@H](C)O)[C@@H](C)O)C(C)C)C(=O)N[C@@H](CC(C)C)C(=O)N[C@@H](CC(N)=O)C(N)=O [VIP], the “myocardial fibrosis index, treated rats compared to the control groups” value [1] is given as “significantly lower”, the “myocardial content of VIP / uptake of exogenous VIP” value [2] is given as “clear association between the degree of fibrosis and uptake of exogenous VIP” and the “ionotropic effect in atria and ventricles” value [3] is given as “direct positive ionotropic effect”. For the same molecule, the “uptake of VIP by the heart from the plasma (difference between mean myocardial VIP concentrations after VIP or control infusion)” value [4] was “As fibrosis worsens the amount of VIP taken up by the heart increases; also recorded: more avid with increasing degrees of fibrosis; also recorded: the higher the level of fibrosis, the greater the uptake of VIP by the heart; also recorded: found to increase as the degree of fibrosis increased”, the “regression of existing myocardial fibrosis” value [5] was “regression of myocardial fibrosis in the three models” and the “myocardial fibrosis index, treated rats compared to the control groups” value [6] was “significantly lower”. For the same molecule, the “myocardial function (left ventricular functions, coronary flow, tissue injury)” value (isolated rat heart) was “significant improvement of myocardial function”.
